From US12247973B2, “Plasma membrane citrate transporter for use in the diagnosis and treatment of cancer” (Universitätsklinikum Regensburg, priority 2014, dated 2025)

Legend:
[1] = system: PC-3M cells; assay: Glucose uptake and lactate release in media of PC-3M cells; type: cell-based, human; settings: 200 μM citrate, 24 h
Experimental: (§1) FIG. 3. Glycolytic activity and amino acid release. (A) Amount of glucose consumed and lactate released by PC-3M cells grown for 24 h with or without 200 μM citrate. (**P<0.01; n=5). (B) Concentrations of glycine, alanine and proline in the supernatants of PC-3M cells grown for 72 h with or without 200 μM citrate. (*P<0.05, **P<0.01; n=5). (C) Influence of extracellular citrate on the intracellular ratio of 13C-labeled to unlabelled free amino acids. PC-3M cells were incubated for 72h in media supplemented with [U-^13C]glucose with or without 200 μM unlabelled citrate, the ratio of ^13C incorporation into amino acids is shown. (*P<0.05, ***P<0.005; n=5). (D) Cell division in the presence or absence of extracellular citrate under normoxic conditions determined by flow cytometry. (*P<0.05, **P<0.01; n=6).
To assess glycolysis the inventors measured (unlabelled) glucose uptake and lactate release in the media from PC-3M cells incubated±200 μM citrate for 24 h. […] This effect is most likely related to increased conversion of pyruvate to lactate because of decreased mitochondrial citrate synthesis.
Metabolites were extracted with 80% methanol and measured by HPLC-ESI-MS/MS on an AB SCI EX (Framingham, MA, USA) Q TRAP™ 4000 system. […] Lactate and glucose in the media were measured as previously described^27.

[2] = system: human prostate cancer PC-3M cells; assay: Survival of PC-3M cells under stress conditions, MTT assay; type: cell-based; settings: serum-free media with 0.5 g/L glucose
Experimental: FIG. 16. Metastatic human prostate cancer PC-3M cells were grown in RPMI media supplemented with 0.5 g/L glucose and glutamine. Their survival rate was measured after 48 h and 72 h using an MTT assay. The control depicts survival of the cells with no extracellular citrate or glutamate.
4. Effect of gluconate on the survival of human prostate cancer PC-3M cells (16)

[3] = system: normal PNT2-C2 cells; assay: ROS synthesis by flow cytometry in PNT2-C2 cells; type: cell-based, human; settings: extracellular citrate
Experimental: FIG. 2. Impact of extracellular citrate on Krebs cycle activity. PC-3M cells were incubated for 72 h with 25 mM [U-13C]glucose with or without the addition of 200 μM unlabelled citrate. (A) Differences in the ratio of uniform ^13C incorporation into fully labelled Krebs cycle intermediates. (*P<0.05, ***P<0.005; n=5). (B) Differences in ROS synthesis determined by flow cytometry for PC-3M (left) and PNT2-C2 (right) cells. Cells were incubated in media containing FCS, dialysed FCS+200 μM citrate, or dialysed serum only. Shown are geometric means±SD. (*P<0.05; n=6-9). […] Changes in mCiC in mitochondrial protein derived from PNT2-C2 cells was also determined under normoxic conditions (right). […]
Changes in Krebs cycle activity were also determined by measuring the absolute amounts determined as a normalized response of the studied substrates (unlabelled and total ^13C depicting all substrates with any number of labelled carbons) in the presence or absence of unlabelled extracellular citrate (FIG. 7). […] Using flow cytometry the inventors also determined that ROS levels in PC-3M cells grown with extracellular citrate were decreases by about 20%, compared to cells grown in citrate-depleted dialysed serum (FIG. 2B); use of normal non-dialysed serum also reduces ROS levels. […]
Studies were performed as before^28. […] ROS production was detected with dihydrorhodamine 123 (Molecular Probes, Darmstadt, Germany). […]

[4] = system: PC-3M cells; assay: Flow cytometry-based cell division (cell cycle) study; parameters: species or system human; settings: PC-3M cells cultured with supplemented citrate, normoxic
Experimental: as §1
An increase in the synthesis of amino acids in the presence of extracellular citrate prompted cell division testing. […] Therefore, metabolic changes induced by extracellular citrate affect metabolism to an extent that impacts cellular processes such as cell division.
Studies were performed as before^28. […] ROS production was detected with dihydrorhodamine 123 (Molecular Probes, Darmstadt, Germany). […] At least 10,000 live cells were measured per sample. Dead cells were detected using the Aqua Live/Dead cell kit (Molecular Probes).

[5] = system: human prostate cancer PC-3M cells; assay: Patch clamp, citrate-induced current in PC-3M cells; type: cell-based
Experimental: (§2) FIG. 14. Patch clamp recordings were performed on PC-3M (A) and PNT2-C2 (B) cells. […] Importantly, reduction in citrate-induced current in the presence of gluconate was irreversible. […] The effect of reduced citrate-induced current was greater in the case of PC-3M cells versus PNT2-C2 cells.
(§3) 2. Patch clamp on human prostate cancer PC-3M and benign PNT2-C2 cells (FIG. 14)
(§4) Extracellular application of citrate induced inward current in both cell lines as described earlier. […] As in the case of oocytes, gluconate inhibition of citrate-induced current was irreversible. Repeated application of citrate on PC-3M cells has been previously shown not to cause any reduction in citrate current (Mycielska et al., 2005).

[6] = system: pmCiC mRNA; assay: RealTime PCR, pmCiC mRNA expression in PC-3M cells; type: cell-based, human; settings: media with citrate plus 5 mM gluconate vs citrate only
Experimental: (§5) FIG. 15. Metastatic human prostate cancer PC-3M cells were grown with extracellular citrate in the presence or absence of gluconate (5 mM). RealTime PCR was performed to assess changes to the mRNA expression level of pmCiC and mCiC.
(§6) 3. Effects of extracellular gluconate on pmCiC mRNA expression (FIG. 15)
(§7) We have studied the effect of gluconate in the extracellular media supplemented with citrate on the expression changes of pmCiC and mCiC as compared to the control conditions where the cells were incubated with extracellular citrate only. […] On the other hand, there was a significant mCiC mRNA increase, which would indicate increased mitochondrial activity to maintain intracellular citrate level.

[7] = system: benign PNT2-C2 cells; assay: Patch clamp, citrate-induced current in PNT2-C2 cells; type: cell-based, human; settings: 10 mM gluconate, 10 mM citrate
Experimental: as §2, §3, §4

[8] = molecular target: T1, pmCiC (Homo sapiens, UniProt P53007); assay: pmCiC expressed in oocytes, two electrodes voltage clamp, citrate-induced current; type: cell-based
T1 construct: expressed in transfected cells
Experimental: FIG. 13. Oocytes were injected with either pmCiC cDNA (A) or water (B).
1. pmCiC expression in oocytes—two electrodes voltage clamp (FIG. 13)
We have expressed pmCiC in oocytes and induced citrate inward current by introducing citrate into extracellular media. […] This reduction was irreversible, as subsequent application of citrate after gluconate removal from the media was not able to restore the primary response.

[9] = system: mCiC mRNA; assay: RealTime PCR, mCiC mRNA expression in PC-3M cells; type: cell-based, human; settings: media with citrate plus 5 mM gluconate vs citrate only
Experimental: as §5, §6, §7

T1 sequence (P53007 with tags, fused parts or gaps limits assumed): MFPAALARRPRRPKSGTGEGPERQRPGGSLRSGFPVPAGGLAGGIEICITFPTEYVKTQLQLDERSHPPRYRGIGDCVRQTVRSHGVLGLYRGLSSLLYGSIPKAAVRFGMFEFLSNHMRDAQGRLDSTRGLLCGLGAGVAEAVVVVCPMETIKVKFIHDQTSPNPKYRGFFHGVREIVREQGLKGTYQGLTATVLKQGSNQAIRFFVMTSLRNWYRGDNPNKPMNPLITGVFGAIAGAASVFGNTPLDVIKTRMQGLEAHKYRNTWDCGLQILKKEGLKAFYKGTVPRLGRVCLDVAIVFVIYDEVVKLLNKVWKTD

Structure (SMILES): O=C(O)CC(O)(CC(=O)O)C(=O)O [citrate]
- lactate production (absolute amount of lactate per media volume) [1]: unaffected
- survival of cancer cells under stress conditions with extracellular citrate ([2]; 200 μM citrate): increases survival
- ROS synthesis [3]: did not affect ROS synthesis
- cell cycle phase distribution [4]: sharp increase in the G2/M phase

Structure (SMILES): O=C(O)[C@H](O)[C@@H](O)[C@H](O)[C@H](O)CO [gluconate]
- reversibility of gluconate inhibition of citrate-induced current ([5]; PC-3M cells, 10 mM gluconate): irreversible
- citrate-induced current in the presence of gluconate ([5]; PC-3M cells, 10 mM gluconate, 10 mM citrate): decreased
- effect of repeated application of gluconate on citrate-induced current ([5]; repeated application): further citrate-induced current reduction
- pmCiC mRNA expression [6]: significantly increased
- citrate-induced current in the presence of gluconate [7]: decreased
- reversibility of the reduction of citrate-induced current ([8]; citrate applied again after gluconate removal from the media): irreversible
- citrate-induced current in the presence of gluconate ([8]; oocytes injected with pmCiC cDNA, gluconate applied extracellularly): significantly decreased
- mCiC mRNA expression [9]: significantly increased
- survival of cells in the presence of extracellular citrate and gluconate ([2]; 200 μM citrate, 48 h and 72 h): protective effect of extracellular citrate is abolished
- cell survival with gluconate in the absence of extracellular citrate ([2]; no citrate): no effect on cell survival
